Measured values reported in patent US8445503B2, “Inhibitors of polo-like kinase” (Elan Pharmaceuticals, Inc., priority 2009, dated 2013).
Where two headings read alike, the source gives them in different places.

Assays:
Type in all cases: biochemical
GST-PLK1 = GST-PLK1 (Homo sapiens, UniProt P53350); experiment: PLK TR-FRET peptide assay, PLK1; details: read-out: Plk1 IC50
GST-PLK3 = biological target: T1, GST-PLK3 (Homo sapiens, UniProt Q9H4B4); experiment: PLK TR-FRET peptide assay, PLK3
T1 construct: purchased CarnaBio
T1 sequence (Q9H4B4 whole entry): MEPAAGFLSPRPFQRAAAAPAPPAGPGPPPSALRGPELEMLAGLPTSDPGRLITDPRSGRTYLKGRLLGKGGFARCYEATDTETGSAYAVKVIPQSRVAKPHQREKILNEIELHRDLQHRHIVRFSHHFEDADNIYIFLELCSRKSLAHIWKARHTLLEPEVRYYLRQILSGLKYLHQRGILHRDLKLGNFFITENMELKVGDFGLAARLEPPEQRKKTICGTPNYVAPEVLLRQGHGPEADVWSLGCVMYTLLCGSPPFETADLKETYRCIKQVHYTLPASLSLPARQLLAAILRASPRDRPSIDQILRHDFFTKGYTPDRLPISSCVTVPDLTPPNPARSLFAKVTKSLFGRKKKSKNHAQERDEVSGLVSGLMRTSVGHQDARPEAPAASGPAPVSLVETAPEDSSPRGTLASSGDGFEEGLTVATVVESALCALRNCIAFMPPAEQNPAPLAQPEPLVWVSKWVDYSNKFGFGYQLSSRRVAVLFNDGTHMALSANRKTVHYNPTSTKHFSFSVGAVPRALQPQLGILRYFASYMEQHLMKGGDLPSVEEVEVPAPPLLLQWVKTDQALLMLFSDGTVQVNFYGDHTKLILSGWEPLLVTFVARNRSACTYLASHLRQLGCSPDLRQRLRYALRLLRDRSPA

GST-PLK2 = biological target: T2, GST-PLK2 (Homo sapiens, UniProt Q9NYY3); experiment: PLK TR-FRET peptide assay, PLK2; details: for IC50: read-out: Plk2 IC50; for PLK2 activity relative to the opposite enantiomer / other isomer: comparison of resolved enantiomers, used to assign absolute configuration
T2 construct: purchased CarnaBio
T2 sequence (Q9NYY3 whole entry): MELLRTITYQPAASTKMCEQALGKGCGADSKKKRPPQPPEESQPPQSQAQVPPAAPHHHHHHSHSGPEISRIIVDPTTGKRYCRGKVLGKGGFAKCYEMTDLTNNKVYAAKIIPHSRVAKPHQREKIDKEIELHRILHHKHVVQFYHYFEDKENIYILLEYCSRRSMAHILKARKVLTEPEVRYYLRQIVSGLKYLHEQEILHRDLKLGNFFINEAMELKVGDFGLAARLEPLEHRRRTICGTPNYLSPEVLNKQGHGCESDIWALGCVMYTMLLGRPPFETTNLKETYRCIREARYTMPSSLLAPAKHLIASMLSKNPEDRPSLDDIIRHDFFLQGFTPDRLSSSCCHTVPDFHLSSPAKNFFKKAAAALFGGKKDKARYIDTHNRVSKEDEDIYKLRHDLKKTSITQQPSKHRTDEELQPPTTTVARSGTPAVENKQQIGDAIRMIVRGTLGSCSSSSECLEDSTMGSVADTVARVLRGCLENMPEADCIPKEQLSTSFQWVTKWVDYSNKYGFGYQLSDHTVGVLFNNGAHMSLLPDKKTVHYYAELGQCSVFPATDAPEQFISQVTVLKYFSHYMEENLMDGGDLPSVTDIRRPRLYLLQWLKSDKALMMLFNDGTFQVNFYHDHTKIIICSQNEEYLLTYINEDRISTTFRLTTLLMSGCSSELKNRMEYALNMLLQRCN

[1] = PLK TR-FRET peptide assay, GST-PLK3; read-out: Plk3 IC50
[2] = PLK TR-FRET peptide assay, GST-PLK2

Sequence of GST-PLK1 (P53350 whole entry): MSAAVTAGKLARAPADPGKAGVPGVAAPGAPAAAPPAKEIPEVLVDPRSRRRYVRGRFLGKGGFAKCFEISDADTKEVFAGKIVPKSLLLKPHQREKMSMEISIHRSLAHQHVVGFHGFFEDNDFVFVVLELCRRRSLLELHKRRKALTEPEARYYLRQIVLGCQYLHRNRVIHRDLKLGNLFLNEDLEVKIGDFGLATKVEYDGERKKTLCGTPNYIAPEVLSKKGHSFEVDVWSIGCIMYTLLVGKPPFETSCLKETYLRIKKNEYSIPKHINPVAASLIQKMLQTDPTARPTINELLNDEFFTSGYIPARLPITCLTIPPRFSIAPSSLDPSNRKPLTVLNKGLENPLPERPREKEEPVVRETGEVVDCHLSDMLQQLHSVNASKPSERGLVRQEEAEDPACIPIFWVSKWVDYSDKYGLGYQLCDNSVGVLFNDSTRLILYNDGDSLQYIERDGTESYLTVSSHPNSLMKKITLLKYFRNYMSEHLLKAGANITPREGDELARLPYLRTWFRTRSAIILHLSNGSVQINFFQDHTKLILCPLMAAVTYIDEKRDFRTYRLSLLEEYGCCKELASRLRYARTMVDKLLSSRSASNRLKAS

Structure (SMILES) | IC50 (GST-PLK1) | IC50 (GST-PLK3; [1]) | IC50 (GST-PLK2; [2]) | PLK2 activity relative to the opposite enantiomer / other isomer (GST-PLK2) | IC50 (GST-PLK3; read-out: Plk3 IC50; PLK TR-FRET peptide assay, GST-PLK3) | IC50 (GST-PLK2)
CC[C@@H]1C(=O)N(C)c2cnc(-n3ccnc3)nc2N1C(C)C [Example 22, (R)-7-ethyl-2-(1H-imidazol-1-yl)-8-isopropyl-5-methyl-7,8-dihydropteridin-6(5H)-one] | 1 to 10 µM | > 50 µM | < 1 µM | – | – | –
CC[C@@H]1C(=O)N(C)c2cnc(-n3cnc(C(=O)NC)c3)nc2N1C1CCCC1 [Example 46, (R)-1-(8-cyclopentyl-7-ethyl-5-methyl-6-oxo-5,6,7,8-tetrahydropteridin-2-yl)-N-methyl-1H-imidazole-4-carboxamide] | < 1 µM | 1 to 10 µM | < 1 µM | – | – | –
CC[C@@H]1C(=O)N(C)c2cnc(-c3sc(N)nc3-c3ccc(F)cc3)nc2N1C(C)C [Example 318, (R)-2-(2-amino-4-(4-fluorophenyl)thiazol-5-yl)-7-ethyl-8-isopropyl-5-methyl-7,8-dihydropteridin-6(5H)-one] | < 1 µM | < 1 µM | < 1 µM | – | – | –
CC[C@@H]1C(=O)N(C)c2cnc(-c3ccn(C)c(=O)c3)nc2N1C1CCCC1 [Example 19, (R)-8-cyclopentyl-7-ethyl-5-methyl-2-(1-methyl-2-oxo-1,2-dihydropyridin-4-yl)-7,8-dihydropteridin-6(5H)-one] | < 1 µM | 10 to 50 µM | < 1 µM | – | – | –
CC[C@@H]1C(=O)N(C)c2cnc(-n3cc(C(=O)N(C)C)cn3)nc2N1C1CCCC1 [Example 39, (R)-1-(8-cyclopentyl-7-ethyl-5-methyl-6-oxo-5,6,7,8-tetrahydropteridin-2-yl)-N,N-dimethyl-1H-pyrazole-4-carboxamide] | 1 to 10 µM | 10 to 50 µM | 1 to 10 µM | – | – | –
CC[C@@H]1C(=O)N(C)c2cnc(-n3ccnc3-c3ccncc3)nc2N1C1CC1 [Example 147, (R)-8-cyclopropyl-7-ethyl-5-methyl-2-(2-(pyridin-4-yl)-1H-imidazol-1-yl)-7,8-dihydropteridin-6(5H)-one] | > 50 µM | > 50 µM | 1 to 10 µM | – | – | –
CC[C@@H]1C(=O)N(C)c2cnc(-c3nccnc3-c3ccccc3)nc2N1C1CCCC1 [Example 138, (R)-8-cyclopentyl-7-ethyl-5-methyl-2-(3-phenylpyrazin-2-yl)-7,8-dihydropteridin-6(5H)-one] | < 1 µM | – | – | – | < 1 µM | < 1 µM
CCC12COCCN1c1nc(-n3ccnc3-c3ccccc3)ncc1N(C)C2=O (racemic) [Example 317, 6a-ethyl-5-methyl-2-(2-phenyl-1H-imidazol-1-yl)-6a,7,9,10-tetrahydro-[1,4]oxazino[3,4-h]pteridin-6(5H)-one] | 10 to 50 µM | 1 to 10 µM | < 1 µM | – | – | –
CC[C@@H]1C(=O)N(C)c2cnc(-n3cnc(-c4cscn4)c3)nc2N1C1CCCC1 [Example 54, (R)-8-cyclopentyl-7-ethyl-5-methyl-2-(4-(thiazol-4-yl)-1H-imidazol-1-yl)-7,8-dihydropteridin-6(5H)-one] | < 1 µM | 1 to 10 µM | < 1 µM | – | – | –
CC[C@@H]1C(=O)N(C)c2cnc(-n3ccnc3-c3ncccn3)nc2N1C(C)C [Example 148, (R)-7-ethyl-8-isopropyl-5-methyl-2-(2-(pyrimidin-2-yl)-1H-imidazol-1-yl)-7,8-dihydropteridin-6(5H)-one] | 1 to 10 µM | 10 to 50 µM | < 1 µM | – | – | –
CC[C@@H]1C(=O)N(C)c2cnc(-n3ccnc3-c3ccncc3)nc2N1C1CCC1 [Example 81, (R)-8-cyclobutyl-7-ethyl-5-methyl-2-(2-(pyridin-4-yl)-1H-imidazol-1-yl)-7,8-dihydropteridin-6(5H)-one] | 1 to 10 µM | 10 to 50 µM | < 1 µM | – | – | –
CC[C@@]12CCCN1c1nc(-n3ccnc3-c3cccnc3)ncc1N(C)C2=O [Example 137, (S)-6a-ethyl-5-methyl-2-(2-(pyridin-3-yl)-1H-imidazol-1-yl)-6a,7,8,9-tetrahydropyrrolo[2,1-h]pteridin-6(5H)-one] | > 50 µM | > 50 µM | 1 to 10 µM | – | – | –
CC[C@@H]1C(=O)N(C)c2cnc(-n3ccnc3N3CCOC3=O)nc2N1C1CCCC1 [Example 78, (R)-3-(1-(8-cyclopentyl-7-ethyl-5-methyl-6-oxo-5,6,7,8-tetrahydropteridin-2-yl)-1H-imidazol-2-yl)oxazolidin-2-one] | 1 to 10 µM | 10 to 50 µM | < 1 µM | – | – | –
CC[C@@H]1C(=O)N(C)c2cnc(-c3ccncc3)nc2N1C1CCC1 [Example 109, (R)-8-cyclobutyl-7-ethyl-5-methyl-2-(pyridin-4-yl)-7,8-dihydropteridin-6(5H)-one] | 1 to 10 µM | 10 to 50 µM | < 1 µM | – | – | –
CCC1C(=O)N(C)c2cnc(-n3ccnc3-c3ccc(F)cc3)nc2N1c1ccccc1 (stereo not drawn) [Example 291, 7-ethyl-2-(2-(4-fluorophenyl)-1H-imidazol-1-yl)-5-methyl-8-phenyl-7,8-dihydropteridin-6(5H)-one] | 1 to 10 µM | 1 to 10 µM | < 1 µM | – | – | –
CCC1C(=O)N(C)c2cnc(-n3ccnc3-c3ccc(F)cc3)nc2N1c1cnn(COCC[Si](C)(C)C)c1 (stereo not drawn) [Example 342, 7-ethyl-2-(2-(4-fluorophenyl)-1H-imidazol-1-yl)-5-methyl-8-(1-((2-(trimethylsilyl)ethoxy)methyl)-1H-pyrazol-4-yl)-7,8-dihydropteridin-6(5H)-one] | 10 to 50 µM | 1 to 10 µM | < 1 µM | – | – | –
CC[C@@H]1C(=O)N(C)c2cnc(-n3ccc(C(=O)NC)n3)nc2N1C1CCCC1 [Example 58, (R)-1-(8-cyclopentyl-7-ethyl-5-methyl-6-oxo-5,6,7,8-tetrahydropteridin-2-yl)-N-methyl-1H-pyrazole-3-carboxamide] | 1 to 10 µM | > 50 µM | < 1 µM | – | – | –

The next lines start with results.

IC50 (GST-PLK1) | IC50 (GST-PLK3; [1]) | IC50 (GST-PLK2; [2]) | PLK2 activity relative to the opposite enantiomer / other isomer (GST-PLK2) | Structure (SMILES) | IC50 (GST-PLK3; read-out: Plk3 IC50; PLK TR-FRET peptide assay, GST-PLK3) | IC50 (GST-PLK2)
10 to 50 µM | 10 to 50 µM | < 1 µM | more active compound | CC[C@@]12COCCN1c1nc(-c3snnc3-c3ccc(F)cc3F)ncc1N(C)C2=O [Example 397, (S)-2-(4-(2,4-difluorophenyl)-1,2,3-thiadiazol-5-yl)-6a-ethyl-5-methyl-6a,7,9,10-tetrahydro-[1,4]oxazino[3,4-h]pteridin-6(5H)-one] | – | –
> 50 µM | > 50 µM | > 50 µM | – | CC[C@]12COCCN1c1nc(-c3cccnc3-c3ccccc3)ncc1N(C)C2=O [Example 404] | – | –
10 to 50 µM | 1 to 10 µM | < 1 µM | more active compound | CC[C@@]12COCCN1c1nc(-c3cn[nH]c3-c3ccc(F)cc3F)ncc1N(C)C2=O [Example 411, (S)-2-(5-(2,4-difluorophenyl)-1H-pyrazol-4-yl)-6a-ethyl-5-methyl-6a,7,9,10-tetrahydro-[1,4]oxazino[3,4-h]pteridin-6(5H)-one] | – | –
< 1 µM | 1 to 10 µM | < 1 µM | – | CC[C@@H]1C(=O)N(C)c2cnc(-n3ncnc3-c3ccn[nH]3)nc2N1C(C)C [Example 327, (R)-2-(5-(1H-pyrazol-5-yl)-1H-1,2,4-triazol-1-yl)-7-ethyl-8-isopropyl-5-methyl-7,8-dihydropteridin-6(5H)-one] | – | –
< 1 µM | 1 to 10 µM | < 1 µM | more active compound | CC[C@@H]1C(=O)N(C)c2cnc(-n3ccnc3-c3ccccc3)nc2N1c1cnn(C)c1 [Example 409, (R)-7-ethyl-5-methyl-8-(1-methyl-1H-pyrazol-4-yl)-2-(2-phenyl-1H-imidazol-1-yl)-7,8-dihydropteridin-6(5H)-one] | – | –
< 1 µM | < 1 µM | < 1 µM | – | CCC1C(=O)N(C)c2cnc(-c3c[nH]nc3-c3ccc(F)cc3F)nc2N1c1ccn(C)n1 (stereo not drawn) [Example 420, 2-(3-(2,4-difluorophenyl)-1H-pyrazol-4-yl)-7-ethyl-5-methyl-8-(1-methyl-1H-pyrazol-3-yl)-7,8-dihydropteridin-6(5H)-one] | – | –
> 50 µM | > 50 µM | 10 to 50 µM | – | CC[C@]12CN(C)CCN1c1nc(-n3ccnc3-c3ccccc3)ncc1N(C)C2=O [Example 375, (R)-6a-ethyl-5,8-dimethyl-2-(2-phenyl-1H-imidazol-1-yl)-7,8,9,10-tetrahydro-5H-pyrazino[2,1-h]pteridin-6(6aH)-one] | – | –
> 50 µM | > 50 µM | > 50 µM | – | CC[C@]12COCCN1c1nc(-c3ccncc3-c3ccccc3)ncc1N(C)C2=O [Example 396, (R)-6a-ethyl-5-methyl-2-(3-phenylpyridin-4-yl)-6a,7,9,10-tetrahydro-[1,4]oxazino[3,4-h]pteridin-6(5H)-one] | – | –
10 to 50 µM | 1 to 10 µM | 1 to 10 µM | – | CC[C@@]12COCCN1c1nc(-c3[nH]nnc3-c3ccccc3)ncc1N(C)C2=O [Example 373, (S)-6a-ethyl-5-methyl-2-(4-phenyl-1H-1,2,3-triazol-5-yl)-6a,7,9,10-tetrahydro-[1,4]oxazino[3,4-h]pteridin-6(5H)-one] | – | –
> 50 µM | > 50 µM | < 1 µM | – | CCC12CN(C)CCN1c1nc(-n3ccnc3-c3ccccc3)ncc1N(C)C2=O (racemic) [Example 371, 6a-ethyl-5,8-dimethyl-2-(2-phenyl-1H-imidazol-1-yl)-7,8,9,10-tetrahydro-5H-pyrazino[2,1-h]pteridin-6(6aH)-one] | – | –
> 50 µM | > 50 µM | 10 to 50 µM | – | CC[C@]12COCCN1c1nc(-c3snnc3-c3ccc(F)cn3)ncc1N(C)C2=O [Example 416, (R)-6a-ethyl-2-(4-(5-fluoropyridin-2-yl)-1,2,3-thiadiazol-5-yl)-5-methyl-6a,7,9,10-tetrahydro-[1,4]oxazino[3,4-h]pteridin-6(5H)-one] | – | –
